This note sets out measurements from patent US9718828B2 (MERCK SHARP & DOHME CORP., priority 2011, dated 2017).

Structures are written as SMILES. Counter-ions that a name gives are not always drawn.

hBTK (full-length BTK, 6HIS-tag cleaved), sequence (Q06187 whole entry): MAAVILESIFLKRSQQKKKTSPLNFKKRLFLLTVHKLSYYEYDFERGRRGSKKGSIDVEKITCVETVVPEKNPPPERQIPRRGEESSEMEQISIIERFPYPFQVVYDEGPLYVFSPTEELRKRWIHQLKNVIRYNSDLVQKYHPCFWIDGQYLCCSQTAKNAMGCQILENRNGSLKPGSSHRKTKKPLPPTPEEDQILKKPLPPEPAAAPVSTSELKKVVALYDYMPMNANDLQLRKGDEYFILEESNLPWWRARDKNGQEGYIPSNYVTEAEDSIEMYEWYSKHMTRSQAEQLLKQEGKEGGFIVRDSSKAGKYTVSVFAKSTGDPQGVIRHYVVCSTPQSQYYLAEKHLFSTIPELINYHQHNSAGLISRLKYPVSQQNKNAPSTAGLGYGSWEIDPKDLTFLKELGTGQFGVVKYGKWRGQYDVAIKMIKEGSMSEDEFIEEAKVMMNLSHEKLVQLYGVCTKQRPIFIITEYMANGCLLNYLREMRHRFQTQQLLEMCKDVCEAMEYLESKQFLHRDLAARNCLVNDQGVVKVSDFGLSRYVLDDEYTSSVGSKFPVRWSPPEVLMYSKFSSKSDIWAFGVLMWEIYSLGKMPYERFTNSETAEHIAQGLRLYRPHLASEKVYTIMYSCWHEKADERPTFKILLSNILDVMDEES

This experiment concerns the target hBTK (full-length BTK, 6HIS-tag cleaved) (Homo sapiens (Human), UniProt Q06187). Nature of the experiment: BTK enzymatic activity, LANCE TR-FRET assay (Assay Method C). Format: biochemical. The note with it: LANCE TR-FRET, 50 pM hBTK, 25 μM ATP; class 100-1000 is given as ≧100 nM-<1 μM; read-out: IC50 Btk activity values - Assay Method C.
Consider `COCCN1CCO[C@@H](c2nc(-c3ccc(C(=O)Nc4cc(C(F)(F)F)ccn4)cc3)c3c(N)ncc(C)n23)C1` [Example 539, 4-{8-amino-3-[(2R)-4-(2-methoxyethyl)morpholin-2-yl]-5-methylimidazo[1,5-a]pyrazin-1-yl}-N-[4-(trifluoromethyl)pyridin-2-yl]benzamide, TFA salt], for which the IC50 is less than 10 nM.
On to `Cc1cnc(N)c2c(-c3ccc(C(=O)Nc4cc(C(F)(F)F)ccn4)cc3)nc([C@H]3CN(CCO)CCO3)n12` [Example 540, 4-{8-amino-3-[(2R)-4-(2-hydroxyethyl)morpholin-2-yl]-5-methylimidazo[1,5-a]pyrazin-1-yl}-N-[4-(trifluoromethyl)pyridin-2-yl]benzamide, TFA salt], for which the IC50 is less than 10 nM.
Regarding `CCOCCN1CCO[C@@H](c2nc(-c3ccc(C(=O)Nc4cc(C(F)(F)F)ccn4)cc3)c3c(N)ncc(C)n23)C1` [Example 541, 4-{8-amino-3-[(2R)-4-(2-ethoxyethyl)morpholin-2-yl]-5-methylimidazo[1,5-a]pyrazin-1-yl}-N-[4-(trifluoromethyl)pyridin-2-yl]benzamide, TFA salt], the IC50 is less than 10 nM.
To `COCCN1CCO[C@@H](c2nc(-c3ccc(C(=O)Nc4cc(C(F)(F)F)ccn4)cc3)c3c(N)ncc(Cl)n23)C1` [Example 542, 4-{8-amino-5-chloro-3-[(2R)-4-(2-methoxyethyl)morpholin-2-yl]imidazo[1,5-a]pyrazin-1-yl}-N-[4-(trifluoromethyl)pyridin-2-yl]benzamide, TFA salt] belongs less than 10 nM; to `Cc1cnc(N)c2c(-c3ccc(C(=O)Nc4cc(C(F)(F)F)ccn4)cc3)nc([C@H]3CN(C(=O)[C@H](C)O)CCO3)n12` [Example 543, 4-(8-amino-3-{(2R)-4-[(2S)-2-hydroxypropanoyl]morpholin-2-yl}-5-methylimidazo[1,5-a]pyrazin-1-yl)-N-[4-(trifluoromethyl)pyridin-2-yl]benzamide, TFA salt], less than 10 nM.
As for `Cc1cnc(N)c2c(-c3ccc(C(=O)Nc4cc(C(F)(F)F)ccn4)cc3)nc([C@H]3CN(C(=O)[C@@H](C)O)CCO3)n12` [Example 544, 4-(8-amino-3-{(2R)-4-[(2R)-2-hydroxypropanoyl]morpholin-2-yl}-5-methylimidazo[1,5-a]pyrazin-1-yl)-N-[4-(trifluoromethyl)pyridin-2-yl]benzamide], the IC50 was less than 10 nM.
On to `CS(=O)(=O)CC(=O)N1CCO[C@@H](c2nc(-c3ccc(C(=O)Nc4cc(C(F)(F)F)ccn4)cc3)c3c(N)nccn23)C1` [Example 545, 4-(8-amino-3-{(2R)-4-[(methylsulfonyl)acetyl]morpholin-2-yl}imidazo[1,5-a]pyrazin-1-yl)-N-[4-(trifluoromethyl)pyridin-2-yl]benzamide], for which the IC50 was less than 10 nM.
Next, `Nc1nccn2c([C@H]3CN[C@@H](CO)CO3)nc(-c3ccc(C(=O)Nc4cc(C(F)(F)F)ccn4)cc3)c12` [Example 546, 4-{8-amino-3-[(2R,5S)-5-(hydroxymethyl)morpholin-2-yl]imidazo[1,5-a]pyrazin-1-yl}-N-[4-(trifluoromethyl)pyridin-2-yl]benzamide]: less than 10 nM; `Nc1nccn2c([C@@H]3CN[C@H](CO)CO3)nc(-c3ccc(C(=O)Nc4cc(C(F)(F)F)ccn4)cc3)c12` [Example 547, 4-{8-amino-3-[(2S,5R)-5-(hydroxymethyl)morpholin-2-yl]imidazo[1,5-a]pyrazin-1-yl}-N-[4-(trifluoromethyl)pyridin-2-yl]benzamide, TFA salt]: 10 to 100 nM; `Cn1cc(CN2C[C@H](c3nc(-c4ccc(C(=O)Nc5cc(C(F)(F)F)ccn5)cc4)c4c(N)nccn34)OC[C@@H]2CO)cn1` [Example 548, 4-(8-amino-3-{(2R,5S)-5-(hydroxymethyl)-4-[(1-methyl-1H-pyrazol-4-yl)methyl]morpholin-2-yl}imidazo[1,5-a]pyrazin-1-yl)-N-[4-(trifluoromethyl)pyridin-2-yl]benzamide, TFA salt]: less than 10 nM.
Next, `CCN1C[C@H](c2nc(-c3ccc(C(=O)Nc4cc(C(F)(F)F)ccn4)cc3)c3c(N)nccn23)OC[C@@H]1CO` [Example 549, 4-{8-amino-3-[(2R,5S)-4-ethyl-5-(hydroxymethyl)morpholin-2-yl]imidazo[1,5-a]pyrazin-1-yl}-N-[4-(trifluoromethyl)pyridin-2-yl]benzamide, TFA salt]: less than 10 nM.
Consider `Nc1nccn2c([C@H]3CN(C4COC4)CCO3)nc(-c3ccc(C(=O)Nc4cc(C(F)(F)F)ccn4)cc3)c12` [Example 550, 4-{8-amino-3-[(2R)-4-oxetan-3-ylmorpholin-2-yl]imidazo[1,5-a]pyrazin-1-yl}-N-[4-(trifluoromethyl)pyridin-2-yl]benzamide, TFA salt], for which the IC50 was less than 10 nM.
As to `COCC(=O)N1CCO[C@@H](c2nc(-c3ccc(C(=O)Nc4cc(C(F)(F)F)ccn4)cc3F)c3c(N)nccn23)C1` [Example 551, 4-{8-amino-3-[(2R)-4-(methoxyacetyl)morpholin-2-yl]imidazo[1,5-a]pyrazin-1-yl}-3-fluoro-N-[4-(trifluoromethyl)pyridin-2-yl]benzamide, TFA salt], the 50% inhibitory concentration (IC50) was less than 10 nM.
For the compound `Cn1ncc2c1CCC[C@H]2n1nc(-c2ccc(C(=O)Nc3cc(C(F)(F)F)ccn3)cc2)c2c(N)ncnc21` [Example 552, 4-{4-amino-1-[(4R)-1-methyl-4,5,6,7-tetrahydro-1H-indazol-4-yl]-1H-pyrazolo[3,4-d]pyrimidin-3-yl}-N-[4-(trifluoromethyl)pyridin-2-yl]benzamide, TFA salt], the IC50 is less than 10 nM.
Take `Cn1ncc2c1CCC[C@@H]2n1nc(-c2ccc(C(=O)Nc3cc(C(F)(F)F)ccn3)cc2)c2c(N)ncnc21` [Example 553, 4-{4-amino-1-[(4S)-1-methyl-4,5,6,7-tetrahydro-1H-indazol-4-yl]-1H-pyrazolo[3,4-d]pyrimidin-3-yl}-N-[4-(trifluoromethyl)pyridin-2-yl]benzamide, TFA salt]: the IC50 is less than 10 nM.
Take `Nc1ncnc2c1c(-c1ccc(C(=O)Nc3cc(C(F)(F)F)ccn3)cc1)nn2[C@@H]1CCCc2[nH]ncc21` [Example 554, 4-{4-amino-1-[(4R)-4,5,6,7-tetrahydro-1H-indazol-4-yl]-1H-pyrazolo[3,4-d]pyrimidin-3-yl}-N-[4-(trifluoromethyl)pyridin-2-yl]benzamide, TFA salt]: the IC50 lay within 10 to 100 nM.
To `Nc1ncnc2c1c(-c1ccc(C(=O)Nc3cc(C(F)(F)F)ccn3)cc1)nn2[C@H]1CCCc2[nH]ncc21` [Example 555, 4-{4-amino-1-[(4S)-4,5,6,7-tetrahydro-1H-indazol-4-yl]-1H-pyrazolo[3,4-d]pyrimidin-3-yl}-N-[4-(trifluoromethyl)pyridin-2-yl]benzamide, TFA salt] belongs less than 10 nM; to `Nc1ncnc2c1c(-c1ccc(C(=O)Nc3cc(C(F)(F)F)ccn3)cc1)nn2[C@H]1CC[C@H](C(F)(F)F)NC1` [Example 556, 4-{4-amino-1-[(3S,6R)-6-(trifluoromethyl)piperidin-3-yl]-1H-pyrazolo[3,4-d]pyrimidin-3-yl}-N-[4-(trifluoromethyl)pyridin-2-yl]benzamide, TFA salt], less than 10 nM; to `Cn1cc2c(n1)CCC[C@H]2n1nc(-c2ccc(C(=O)Nc3cc(C(F)(F)F)ccn3)cc2)c2c(N)ncnc21` [Example 557, 4-{4-amino-1-[(4R)-2-methyl-4,5,6,7-tetrahydro-2H-indazol-4-yl]-1H-pyrazolo[3,4-d]pyrimidin-3-yl}-N-[4-(trifluoromethyl)pyridin-2-yl]benzamide, TFA salt], 100 to 1000 nM.
To `Cn1cc2c(n1)CCC[C@@H]2n1nc(-c2ccc(C(=O)Nc3cc(C(F)(F)F)ccn3)cc2)c2c(N)ncnc21` [Example 558, 4-{4-amino-1-[(4S)-2-methyl-4,5,6,7-tetrahydro-2H-indazol-4-yl]-1H-pyrazolo[3,4-d]pyrimidin-3-yl}-N-[4-(trifluoromethyl)pyridin-2-yl]benzamide, TFA salt] belongs less than 10 nM; to `CCn1ncc2c1CCC[C@H]2n1nc(-c2ccc(C(=O)Nc3cc(C(F)(F)F)ccn3)cc2)c2c(N)ncnc21` [Example 559, 4-{4-amino-1-[(4R)-1-ethyl-4,5,6,7-tetrahydro-1H-indazol-4-yl]-1H-pyrazolo[3,4-d]pyrimidin-3-yl}-N-[4-(trifluoromethyl)pyridin-2-yl]benzamide, TFA salt], less than 10 nM.
For the compound `CCn1cc2c(n1)CCC[C@@H]2n1nc(-c2ccc(C(=O)Nc3cc(C(F)(F)F)ccn3)cc2)c2c(N)ncnc21` [Example 560, 4-{4-amino-1-[(4S)-2-ethyl-4,5,6,7-tetrahydro-2H-indazol-4-yl]-1H-pyrazolo[3,4-d]pyrimidin-3-yl}-N-[4-(trifluoromethyl)pyridin-2-yl]benzamide, TFA salt], the IC50 fell in the range of 10 to 100 nM.
Take `Nc1ncnc2c1c(-c1ccc(C(=O)Nc3cc(C(F)(F)F)ccn3)cc1)nn2[C@@H]1CCCc2c1cnn2CCO` [Example 561, 4-{4-amino-1-[(4R)-1-(2-hydroxyethyl)-4,5,6,7-tetrahydro-1H-indazol-4-yl]-1H-pyrazolo[3,4-d]pyrimidin-3-yl}-N-[4-(trifluoromethyl)pyridin-2-yl]benzamide, TFA salt]: the IC50 was less than 10 nM.
With `Nc1ncnc2c1c(-c1ccc(C(=O)Nc3cc(C(F)(F)F)ccn3)cc1)nn2[C@@H]1CCCc2nn(CCO)cc21` [Example 562, 4-{4-amino-1-[(4R)-2-(2-hydroxyethyl)-4,5,6,7-tetrahydro-2H-indazol-4-yl]-1H-pyrazolo[3,4-d]pyrimidin-3-yl}-N-[4-(trifluoromethyl)pyridin-2-yl]benzamide, TFA salt], the IC50 is less than 10 nM.
For `Nc1ncnc2c1c(-c1ccc(C(=O)Nc3cc(C(F)(F)F)ccn3)cc1)nn2[C@H]1CCCc2c1cnn2CCO` [Example 563, 4-{4-amino-1-[(4S)-1-(2-hydroxyethyl)-4,5,6,7-tetrahydro-1H-indazol-4-yl]-1H-pyrazolo[3,4-d]pyrimidin-3-yl}-N-[4-(trifluoromethyl)pyridin-2-yl]benzamide, TFA salt], the IC50 was less than 10 nM.
